According to patent US20130059783A1, “COMPOSITIONS AND METHODS FOR EXPANDING BFU-E CELLS” (priority 2010, published 2013):

What was measured:
[1] = system: fetal liver erythroid progenitor (FLEP) cells; assay: Colony forming assays of magnetically depleted fetal liver cells (Table S1); type: cell-based, mouse
Description: The negatively enriched cell populations were subjected to colony forming assays under two different conditions. […] CFU-E colonies were counted 3 days later. […] These cells were cultured 8-9 days before late BFU-E, early BFU-E, CFU-G/M/Mk (granulocyte, monocyte, megakaryocyte), and CFU-GEMM (granulocyte, erythrocyte, monocyte, megakaryocyte) colonies were scored. BFU-Es consisting of a cluster of only 5-20 CFU-Es were scored as late, while larger BFU-Es were scored as early. 2,7-fluorenediamine was used to stain hemoglobin-containing colonies in the plates. […] Standard deviation between experiments is shown in parenthesis.
The first step towards enrichment of BFU-E and CFU-E cells was to remove more mature blood cells from single cell suspensions of fetal livers by magnetic column depletion. We stained fetal liver cells with a panel of biotin labeled anti-lineage (Lin) antibodies (Ter119, B220, Mac-1, CD3 and Gr-1), followed by anti-biotin tetramer and magnetic colloid labeling. All positive cells were depleted using magnetic columns.
Colonies were scored after 3 days. […] The number of hemoglobinized early BFU-E and late BFU-E colonies was determined after 8-9 days following staining with 2,7-Diaminofluorene (Sigma Chemical, St. Louis, Mo.).

[2] = system: miRNA expression in BFU-E cells; assay: Small RNA (miRNA) sequencing of BFU-E cells cultured 4 hours with or without Dex; type: cell-based, mouse; conditions: 100 nM Dex
Description: FIGS. 2A-2B. The effect of glucocorticoids on miRNA and mRNA expression in BFU-E cells determined by next generation sequencing. […] Both mRNAs and miRNAs were subjected to Illumina deep sequencing. […] (B) A plot similar to that in A for expression of individual mRNAs. mRNA expression was normalized using the RPKM method, which determines the relative expression of each gene to all expressed genes by giving each gene an RPKM count (number of uniquely aligning reads per kb exon per million total reads).
B) Percent of total miRNA expression of the 20 highest expressed miRNAs. C) Percent of total miRNA expression of the 20 highest expressed miRNA-families.
Differences in miRNA expression were determined as described previously (Baek et al., 2008). […] Since several miRNAs contain the same seed sequence and therefore target the same group of mRNAs we also compared changes in expression of miRNA families.
Small RNA sequencing was performed essentially as described (Grimson et al., 2008). […] The adaptor sequence was stripped and aligned to mouse NCBI build 37 (mm9) using ELAND. Reads mapping to the known microRNA hairpins were used for downstream analysis. Reads mapping to miRNA with more than one known copy in the genome were divided equally between the different loci. miRNA analysis methods to compute miRNA expression counts were derived from previously published methods (Baek et al., 2008).

[3] = Lin− fetal liver cells, EPO, SCF, IL-3, IL-6, 100 nM Dex
[4] = Lin−, CD32/16− cells, 100 nM Dex
[5] = Lin−, CD32/16−, Sca-1− cells, 100 nM Dex
[6] = Lin−, CD32/16−, Sca-1−, CD41− cells, 100 nM Dex
[7] = Lin−, CD32/16−, Sca-1−, CD41−, CD34− (FLEP cells), 100 nM Dex

## C[C@@H]1C[C@H]2[C@@H]3CCC4=CC(=O)C=C[C@]4(C)[C@@]3(F)[C@@H](O)C[C@]2(C)[C@@]1(O)C(=O)CO [Dex, dexamethasone]
[1]; [3]
  CFU-G/M/Meg colonies, scored day 8-9: 25 (±5) colonies per 1000 plated cells
  GEMM colonies, scored day 8-9: 7 (±4) colonies per 1000 plated cells
  early BFU-E colonies, scored day 8-9: 39 (±12) colonies per 1000 plated cells
  late BFU-E colonies, scored day 8-9: 53 (±13) colonies per 1000 plated cells
[1]; Lin− fetal liver cells, methylcellulose 10U EPO/mL, 100 nM Dex
  CFU-E colonies, scored day 3: 472 (±79) colonies per 1000 plated cells
[1]; [4]
  CFU-G/M/Meg colonies, scored day 8-9: 17 (±10) colonies per 1000 plated cells
  GEMM colonies, scored day 8-9: 5 (±2) colonies per 1000 plated cells
  early BFU-E colonies, scored day 8-9: 37 (±12) colonies per 1000 plated cells
  late BFU-E colonies, scored day 8-9: 69 (±14) colonies per 1000 plated cells
[1]; Lin−, CD32/16− fetal liver cells, 10U EPO/mL, 100 nM Dex
  CFU-E colonies, scored day 3: 560 (±245) colonies per 1000 plated cells
[1]; [5]
  CFU-G/M/Meg colonies, scored day 8-9: 7 (±3) colonies per 1000 plated cells
  GEMM colonies, scored day 8-9: 0.2 (±0.3) colonies per 1000 plated cells
  early BFU-E colonies, scored day 8-9: 24 (±5) colonies per 1000 plated cells
  late BFU-E colonies, scored day 8-9: 110 (±10) colonies per 1000 plated cells
[1]; [6]
  CFU-G/M/Meg colonies, scored day 8-9: 9 (±12) colonies per 1000 plated cells
  GEMM colonies, scored day 8-9: 0.3 (±0.4) colonies per 1000 plated cells
  early BFU-E colonies, scored day 8-9: 10 (±4) colonies per 1000 plated cells
  late BFU-E colonies, scored day 8-9: 142 (±77) colonies per 1000 plated cells
[1]; [7]
  CFU-G/M/Meg colonies, scored day 8-9: 4 (±6) colonies per 1000 plated cells
  GEMM colonies, scored day 8-9: 0.3 (±0.5) colonies per 1000 plated cells
  early BFU-E colonies, scored day 8-9: 23 (±17) colonies per 1000 plated cells
  late BFU-E colonies, scored day 8-9: 141 (±84) colonies per 1000 plated cells
[2]
  Increase in expression of the 100 highest expressed miRNAs: ≤ 50%
  Increase in miR-451 expression: 49%
